Results taken from patent US8133847B2, “Pyrido[2,3-B]pyrazine derivatives useful as herbicidal compounds” (Syngenta Limited, priority 2006, dated 2012).

What was measured:
Experiment in all cases: Example B2 herbicidal action, post-emergence, pots in glasshouse
Assay type in all cases: in vivo
[1] = tested on: Amaranthus retroflexus (AMARE); conditions: Application post-emergence, evaluated after 13 days (100=total damage to plant; 0=no damage to plant)
Description: (§1) Seeds of a variety of test species were sown in standard soil in pots. After 8 days cultivation (post-emergence) under controlled conditions in a glasshouse (at 24/16° C., day/night; 14 hours light; 65% humidity), the plants were sprayed with an aqueous spray solution derived from the formulation of the technical active ingredient in acetone/water (50:50) solution containing 0.5% Tween 20 (polyoxyethylene sorbitan monolaurate, CAS RN 9005-64-5). The test plants were then grown in a glasshouse under controlled conditions in a glasshouse (at 24/16° C., day/night; 14 hours light; 65% humidity) and watered twice daily. After 13 days, the test was evaluated (100=total damage to plant; 0=no damage to plant).

[2] = tested on: Echinochloa crusgalli (ECHCG); conditions: Application post-emergence, evaluated after 13 days (100=total damage to plant; 0=no damage to plant)
Description: as §1

[3] = tested on: Ipomea hederaceae (IPOHE); conditions: Application post-emergence, evaluated after 13 days (100=total damage to plant; 0=no damage to plant)
Description: as §1

[4] = tested on: Setaria faberi (SETFA); conditions: Application post-emergence, evaluated after 13 days (100=total damage to plant; 0=no damage to plant)
Description: as §1

[5] = tested on: Solanum nigrum (SOLNI); conditions: Application post-emergence, evaluated after 13 days
Description: as §1

Structure (SMILES) | damage to plant, Amaranthus retroflexus (AMARE) [1] | damage to plant, Echinochloa crusgalli (ECHCG) [2] | damage to plant, Ipomea hederaceae (IPOHE) [3] | damage to plant, Setaria faberi (SETFA) [4] | damage to plant, Solanum nigrum (SOLNI) [5]
CC(C)(C)C(=O)Oc1c(-c2ccccc2Br)c(=O)[nH]c2nccnc12 [Compound B51] | 3 | 3 | 0 | 6 | 7
CC(C)(C)C(=O)Oc1c(-c2ccccc2OC(F)F)c(=O)[nH]c2nccnc12 [Compound B59] | 0 | 0 | 3 | 4 | 2
CCn1c(=O)c(-c2c(Cl)cc(C(F)(F)F)cc2Cl)c(OC(=O)C(C)(C)C)c2nccnc21 [Compound C129] | 10 | 4 | 9 | 6 | 10
CC(C)(C)C(=O)Oc1c(-c2c(F)ccc(F)c2Cl)c(=O)n(CC2CCC2)c2nccnc12 [Compound C131] | 0 | 0 | 0 | 0 | 2
Cc1ccc(C)c(-c2c(OC(=O)C(C)C)c3nccnc3n(C)c2=O)c1 [Compound C133] | 9 | 6 | 3 | 4 | 9
Cc1ccc(C)c(-c2c(OC(=O)C(C)(C)C)c3nccnc3n(C)c2=O)c1 [Compound C134] | 9 | 0 | 6 | 2 | 10
CCn1c(=O)c(-c2cc(C)ccc2C)c(OC(=O)C(C)(C)C)c2nccnc21 [Compound C135] | 8 | 2 | 0 | 0 | 10
Cn1c(=O)c(-c2c(Cl)cc(OC(F)(F)F)cc2Cl)c(OC(=O)C(C)(C)C)c2nccnc21 [Compound C138] | 8 | 2 | 8 | 4 | 8
CCn1c(=O)c(-c2c(Cl)cc(OC(F)(F)F)cc2Cl)c(OC(=O)C(C)(C)C)c2nccnc21 [Compound C139] | 10 | 10 | 10 | 10 | 10
Cn1c(=O)c(-c2ccc(C(F)(F)F)cc2[N+](=O)[O-])c(OC(=O)C(C)(C)C)c2nccnc21 [Compound C140] | 8 | 3 | 2 | 0 | 9
CC(C)C(=O)Oc1c(-c2cc(F)ccc2Cl)c(=O)n(C)c2nccnc12 [Compound C142] | 10 | 8 | 9 | 7 | 10
Cn1c(=O)c(-c2cc(F)ccc2Cl)c(OC(=O)C(C)(C)C)c2nccnc21 [Compound C143] | 10 | 7 | 9 | 8 | 10
CC(C)C(=O)Oc1c(-c2c(F)ccc(Br)c2Cl)c(=O)n(C)c2nccnc12 [Compound C144] | 10 | 4 | 9 | 2 | 10
Cn1c(=O)c(-c2c(F)ccc(Br)c2Cl)c(OC(=O)C(C)(C)C)c2nccnc21 [Compound C145] | 7 | 1 | 6 | 0 | 9
Cn1c(=O)c(-c2ccccc2Br)c(OC(=O)C(C)(C)C)c2nccnc21 [Compound C146] | 9 | 5 | 7 | 6 | 8
